The record followed here is patent US9290515B2, “Cephem derivative having catechol group” (SHIONOGI & CO., LTD., priority 2011, dated 2016).

≈ marks a conversion by molar mass, not a printed value. Read-outs that look alike come from different tables or passages of the source.

Type in all cases: cell-based
The test system of assay [1] is E. coli ATCC BAA-196_TEM-10. The experiment in a line: MIC by broth microdilution (CLSI), E. coli ATCC BAA-196. The note with it: Escherichia coli. The procedure:
(§1) Measurement of a minimum growth inhibition concentration (MIC: μg/mL) was performed according to CLSI (Clinical and Laboratory Standards Institute) method, by broth microdilution method, using an inoculation microbe amount of 10000 cfu/well and cation-adjusted Mueller Hinton broth containing human-derived 20 μM apo-transferrin as a test medium.

Assay [2] has as its system K. pneumoniae ATCC 700603_SHV18. Description: MIC by broth microdilution (CLSI), K. pneumoniae ATCC 700603. The note with it: Klebsiella pneumoniae. As for the experimental part: as §1
Assay [3] deals with P. aeruginosa SR24. Description: MIC by broth microdilution (CLSI), P. aeruginosa SR24. The note with it: Pseudomonas aeruginosa. As for the experimental part: as §1
The test system of assay [4] is P. aeruginosa SR27060(metallo). The experiment in a line: MIC by broth microdilution (CLSI), P. aeruginosa SR27060. The note with it: Pseudomonas aeruginosa; P. aeruginosa SR27060, IMP-1, MBL producing carbapenem-resistant strain; 10000 cfu/well; cation-adjusted Mueller Hinton broth with 20 μM human apo-transferrin; read-out: minimum growth inhibition concentration (MIC). The procedure: as §1

Assay [5] concerns P. aeruginosa SR27001(MDRP, IMP-1+). The experiment in a line: MIC by broth microdilution (CLSI), P. aeruginosa SR27001. The note with it: Pseudomonas aeruginosa, read-out: minimum growth inhibition concentration (MIC). As for the experimental part:
as §1

The mark [6] stands for this setting: ATCCBAA196, E. coli ATCC BAA-196, TEM-10, ESBL producing strain, 10000 cfu/well, cation-adjusted Mueller Hinton broth with 20 μM human apo-transferrin, read-out: minimum growth inhibition concentration (MIC).
Where [7] appears, read: ATCC700603, K. pneumoniae ATCC 700603, SHV-18, ESBL producing strain, 10000 cfu/well, cation-adjusted Mueller Hinton broth with 20 μM human apo-transferrin, read-out: minimum growth inhibition concentration (MIC).
Where [8] appears, read: P. aeruginosa SR24, Ceftazidime-sensitive strain, 10000 cfu/well, cation-adjusted Mueller Hinton broth with 20 μM human apo-transferrin, read-out: minimum growth inhibition concentration (MIC).
The mark [9] stands for this setting: P. aeruginosa SR27001, MDRP, IMP-1, MBL producing carbapenem-resistant strain, 10000 cfu/well, cation-adjusted Mueller Hinton broth with 20 μM human apo-transferrin.

In the case of `Nc1nc(/C(=N/OC(CNC(=O)c2ccc(O)c(O)c2Cl)C(=O)[O-])C(=O)N[C@@H]2C(=O)N3C(C(=O)[O-])=C(C[N+]45CCC(CC4)CC5)CS[C@H]23)ns1.[Na+]` (stereo partly shown) [Compound I-17], the MIC came out at 4 µg/mL in assay [1] (setting [6]), 8 µg/mL in assay [2] (setting [7]) and 0.25 µg/mL in assay [3] (setting [8]).
With `NCC[N+]1(CC2=C(C(=O)[O-])N3C(=O)[C@@H](NC(=O)/C(=N\OCc4ccc(O)c(O)c4C(=O)O)c4csc(N)n4)[C@H]3SC2)CCCC1` [Compound I-19], the figures for the MIC in assay [1] (setting [6]) and in assay [3] (setting [8]) were 8 µg/mL (≈ 12.1 µM) and 0.5 µg/mL (≈ 0.756 µM), respectively.
With `CC(C)(O/N=C(\C(=O)N[C@@H]1C(=O)N2C(C(=O)[O-])=C(C[N@+]3(C)[C@@H]4CC[C@H]3C[C@@H](N)C4)CS[C@H]12)c1ccc(O)c(O)c1Cl)C(=O)O` [Compound I-20], the MIC turned out to be 2 µg/mL (≈ 3.07 µM) in assay [1] (setting [6]) and 4 µg/mL (≈ 6.13 µM) in assay [4].
Consider `Nc1nc(/C(=N/OC(CNC(=O)c2ccc(O)c(O)c2Cl)C(=O)[O-])C(=O)N[C@@H]2C(=O)N3C(C(=O)[O-])=C(C[N+]45CCCC4CCC5)CS[C@H]23)cs1.[Na+]` (stereo partly shown) [Compound I-24], for which the MIC turned out to be 16 µg/mL in assay [5] (setting [9]), 1 µg/mL in assay [1] (setting [6]), 0.5 µg/mL in assay [2] (setting [7]) and 0.5 µg/mL in assay [3] (setting [8]).
In the case of `Nc1nc(/C(=N/OC(CNC(=O)c2ccc(O)c(O)c2Cl)C(=O)[O-])C(=O)N[C@@H]2C(=O)N3C(C(=O)[O-])=C(C[N+]4(CCNC(=O)CC[C@H](N)C(=O)O)CCCC4)CS[C@H]23)cs1.[Na+]` (stereo partly shown) [Compound I-25], the MIC was 4 µg/mL in assay [5] (setting [9]), 2 µg/mL in assay [1] (setting [6]), 1 µg/mL in assay [2] (setting [7]) and 0.5 µg/mL in assay [3] (setting [8]).
Regarding `C[N+]1(CC2=C(C(=O)[O-])N3C(=O)[C@@H](NC(=O)/C(=N\OC(CNC(=O)c4ccc(O)c(O)c4Cl)C(=O)[O-])c4csc(N)n4)[C@H]3SC2)[C@@H]2CC[C@H]1C[C@@H](NC(=O)CC[C@H](N)C(=O)O)C2.[Na+]` (stereo partly shown) [Compound I-26], the MIC was 4 µg/mL in assay [5]; 1 µg/mL in assay [1] (ATCCBAA196, read-out: minimum growth inhibition concentration (MIC)); 1 µg/mL in assay [2] (ATCC700603, read-out: minimum growth inhibition concentration (MIC)); 1 µg/mL in assay [3] (SR24, read-out: minimum growth inhibition concentration (MIC)).
Regarding `Nc1nc(/C(=N/OC(CNC(=O)c2ccc(O)c(O)c2Cl)C(=O)[O-])C(=O)N[C@@H]2C(=O)N3C(C(=O)[O-])=C(C[N+]4(CCNC(=O)C[C@@H](N)CC(=O)O)CCCC4)CS[C@H]23)cs1.[Na+]` (stereo partly shown) [Compound I-27], the MIC stood at 4 µg/mL in assay [5] (setting [9]), 2 µg/mL in assay [1] (setting [6]), 0.5 µg/mL in assay [2] (setting [7]) and 0.25 µg/mL in assay [3] (setting [8]).
In the same order, the values of `Nc1nc(/C(=N/OC(CNC(=O)c2ccc(O)c(O)c2Cl)C(=O)[O-])C(=O)N[C@@H]2C(=O)N3C(C(=O)[O-])=C(C[N+]45CCCC4CCC5)CS[C@H]23)c(Cl)s1.[Na+]` (stereo partly shown) [Compound I-28] are 8 µg/mL, 0.5 µg/mL, 1 µg/mL and 0.25 µg/mL.
Taken in the same sequence, the figures for `Nc1nc(/C(=N/OC(CNC(=O)c2ccc(O)c(O)c2Cl)C(=O)[O-])C(=O)N[C@@H]2C(=O)N3C(C(=O)[O-])=C(C[N+]4(CCNC(=O)CC[C@H](N)C(=O)O)CCCC4)CS[C@H]23)c(Cl)s1.[Na+]` (stereo partly shown) [Compound I-29] were 2 µg/mL, 0.5 µg/mL, 1 µg/mL and 0.5 µg/mL.
For `Nc1nc(/C(=N/OC(CNC(=O)c2ccc(O)c(O)c2Cl)C(=O)[O-])C(=O)N[C@@H]2C(=O)N3C(C(=O)[O-])=C(C[N+]4(CCNC(=O)C[C@@H](N)CC(=O)O)CCCC4)CS[C@H]23)c(Cl)s1.[Na+]` (stereo partly shown) [Compound I-30], the MIC in assay [5] (setting [9]) turned out to be 8 µg/mL; in assay [1] (setting [6]), 0.5 µg/mL; in assay [2] (setting [7]) it was 2 µg/mL; in assay [3] (setting [8]), 0.25 µg/mL.
Taken in the same sequence, the figures for `NCC[N+]1(CC2=C(C(=O)[O-])N3C(=O)[C@@H](NC(=O)/C(=N\OC(C[C@H](NC(=O)c4ccc(O)c(O)c4Cl)C(=O)[O-])C(=O)O)c4csc(N)n4)[C@H]3SC2)CCCC1.[Na+]` (stereo partly shown) [Compound I-31] were 1 µg/mL, 0.25 µg/mL, 0.25 µg/mL and 0.5 µg/mL.
In the same order, the values of `Nc1nc(/C(=N/OC(C[C@H](NC(=O)c2ccc(O)c(O)c2Cl)C(=O)[O-])C(=O)[O-])C(=O)N[C@@H]2C(=O)N3C(C(=O)[O-])=C(C[N+]4(CCNC(=O)CC[C@H](N)C(=O)O)CCCC4)CS[C@H]23)cs1.[Na+].[Na+]` (stereo partly shown) [Compound I-32] are 2 µg/mL, 0.5 µg/mL, 1 µg/mL and 0.25 µg/mL.
